According to patent US20180207177A1, “TREATMENT OF TRIPLE NEGATIVE BREAST CANCER UTILIZING ANDROST-5-ENE-3b,17b-DIOL (b-AED), ANDROST-5-ENE-3b,7b,17b-TRIOL (b-AET) AND ESTRADIOL (E2)” (Government of the United States as Represented by the …, priority 2017, published 2018):

What was measured:
293T cells = assay: Biological function (phenotype, mobile cells) in 293T cells; type: cell-based, human
Experimental: A non-toxic vehicle for administration of androstene hormones according to embodiments of the present invention was prepared from a first solution and a second solution. The first solution, comprising liposomal formulation, was placed in PEG 300 to a concentration of 5% and heated in a sonicating water bath to about 45° C. The second solution, comprising a selected hormone (one or more of 5Δ-androsten-3β, 17α-diol, 5Δ-androsten-3β, 17β-diol, or 5Δ-androsten-3β,7β,17β-triol), was placed in PEG 300 and heated in a sonicating water bath to about 45° C. The first and second solutions were then combine and stirred until dissolved.
Biological function was tested in 293T cells, which is a human embryonic cell line transformed with Large T antigen […] SV40. This hypotriploid (polyploid) cell line is particularly useful in such transformation studies and has very distinct phenotypes when grown. All androstene hormone treatment applications were at concentrations of 25 μM.

[1] = tested on: MDA-MB-231 breast cancer cell; assay: Cell death in MDA-MB-231 breast cancer cell cultures; type: cell-based; conditions: 25 μM β-AED, 25 μM β-AET, 5 nM E2; PEG 300/LIPOFECTAMINE vehicle
Experimental: (§1) Hormone dependent, noninvasive, epithelial phenotype (ER/PR positive MCF-7 breast cancer cells) and hormone independent, invasive, mesenchymal phenotype (ER/PR negative MDA-MB-231 breast cancer cell) cell suspensions were acquired and prepared in complete medium (DMEM/F12, 10% FBS, 1% penicillin/streptomycin (Gibco)). Cellular concentration was adjusted to 2×10^5 cells/mL.
(§2) Androstene hormone solutions according to embodiments of the present invention were prepared from a first solution and a second solution. For the first solution, 3.0 mg of β-AED or β-AET was added to warm PEG 300 to prepare 50 mM stock. For the second solution, 10 μL of LIPOFECTAMINE (3:1 DOSPA:DOPE) was introduced to 100 μL of PEG 300, mixed, and incubated in a water bath at 42° C. for 30 min. The first and second solutions were then mixed in a sonicator water bath at 42° C. for 1 hr. The final concentration was 50 mM β-AED (or AET, as used).
(§3) A β-estradiol solution was also prepared by adding 2.7 mg of β-estradiol to 200 μL warmed PEG 300 with LIPOFECTAMINE and then further diluted 1:1000 with PEG-300. The final concentration was 50 μM.
A diluted β-AED (or β-AET) solution was prepared with complete medium at a final concentration of 50 μM (1:1000 dilute of 50 mM). Likewise, a diluted β-E2 solution was prepared with complete medium at a final concentration of 10 nM (1:5000 dilute of 50 μM). […]

[2] = tested on: MCF-7 breast cancer cells; assay: Cell death and growth in MCF-7 breast cancer cell cultures; type: cell-based; conditions: for MCF7 Cell Death Amount: 25 μM β-AED, 25 μM β-AET, PEG 300/LIPOFECTAMINE vehicle; for cell growth / cell density (microscopic photograph): compared to vehicle FIG. 14
Experimental: as §1, §2, §3
A diluted β-AED (or β-AET) solution was prepared with complete medium at a final concentration of 50 μM (1:1000 dilute of 50 mM). Likewise, a diluted β-E2 solution was prepared with complete medium at a final concentration of 10 nM (1:5000 dilute of 50 μM).
Using a 24-well plate, mixtures of 0.5 mL of cells per well with 0.5 mL of medium diluted hormone vehicle. Cell cultures were maintained at 90% humidity, 7% CO2, and 37° C.

[3] = vehicle PEG 300, androstene hormone 25 μM
[4] = MCF-7 grown for 5 days, 25 μM androstene, 5 nM E2

| Compound | cell islands (photograph) (293T cells; [3]) | mobile cells / cell processes (photograph) (293T cells; [3]) | mobile cells / mobile elements and processes (photograph) (293T cells; vehicle PEG 300 and LIPOFECTAMINE, β-AED 25 μM, E2 5 nM) | MDA-MB-231 Cell Death Amount [1] | MCF7 Cell Death Amount ([2]; 5 nM E2) | particles / cell bodies produced by cells in response to treatment [2, 4] | cell growth / cell density (microscopic photograph) [2, 4] | Additional Observation ([2]; cell line not given, particles shown for MCF-7 in FIG. 15) |
| --- | --- | --- | --- | --- | --- | --- | --- | --- |
| C[C@]12CC[C@H]3[C@@H](CC=C4C[C@@H](O)CC[C@@]43C)[C@@H]1CC[C@@H]2O [β-AED, androst-5-ene-3β,17β-diol] | cell islands are larger | significant reduction in mobile cells | drastic decrease in, or morphological change, in mobile elements | Not observed | Not observed | small particles | not as heath and there are areas of decreased density | Cell particles observed |
| C[C@]12CC[C@H]3[C@@H]([C@@H](O)C=C4C[C@@H](O)CC[C@@]43C)[C@@H]1CC[C@@H]2O [β-AET, 5-androstene-3β,7β,17β-triol] |  |  |  | Not observed | Not observed |  | thick and similar to the cell growth of FIG. 14 |  |
